Values quoted from earlier work, collected in patent US20200179295A1, “MRI-DETECTABLE MULTILAYER MICROCAPSULES FOR ULTRASOUND-TRIGGERED DELIVERY OF PHARMACOLOGICALLY ACTIVE AGENTS” (THE UAB RESEARCH FOUNDATION, priority 2018, published 2020).

Settings: 1.5 T; Rohrer et al. 2005

## CC(O)CN1CCN(CC(=O)[O-])CCN(CC(=O)[O-])CCN(CC(=O)[O-])CC1.[Gd+3] (stereo not shown) [ProHance, gadoteridol]
  r1: 4.1 mM⁻¹ s⁻¹
